Test results from patent publication US10961238B2, “Modulators of hedgehog (Hh) signaling pathway” (E-THERAPEUTICS PLC, priority 2016, dated 2021).

System: C3H10T1/2 cells
Experiment: C3H assay: differentiation of C3H10T1/2 cells by mSHH, measurement of alkaline phosphatase
Assay type: cell-based, mouse
Details: Mus musculus, C3H 10T1/2, 72 h, read-out: IC50 Ranges

Row | SMILES | IC50
1 | O=C(Oc1cccnc1)N1CC(S(=O)(=O)N2CCC(c3c[nH]c4ncccc34)CC2)C1 [Compound 212, pyridin-3-yl 3-[4-(1H-pyrrolo [2,3-b]pyridin-3-yl)piperidin-1-yl]sulfonylaze-tidine-1-carboxylate] | 10 to 100 nM

Same assay, conditions: Mus musculus, C3H 10T1/2; C3H10T1/2 cells stimulated with mSHH for 72 hours; alkaline phosphatase activity; read-out: IC50 Ranges

Row | SMILES | IC50
2 | Cc1ccc(S(=O)(=O)n2cc(C3CCN(S(=O)(=O)C4CN(C(=O)OC(C)(C)C)C4)CC3)c3nccnc32)cc1 [Compound 129, tert-butyl 3-[4-[5-(4-methylphenyl)-sulfonylpyrrolo[2,3-b]pyrazin-7-yl]piperidin-1-yl]sulfonylaze-tidine-1-carboxylate] | 1000 to 10000 nM
3 | O=C(NC1(C(F)(F)F)CC1)N1CC(S(=O)(=O)N2CCC(c3c[nH]c4ncccc34)CC2)C1 [Compound 57, 3-[[4-(1H-Pyrrolo[2,3-b]pyridin-3-yl)-1-piperidyl]sulfonyl]-N-[1-(trifluoromethyl)cyclopropyl]azetidine-1-carboxamide] | < 10 nM
4 | Cc1noc(C)c1NC(=O)N1CC(S(=O)(=O)N2CCC(c3cnc4c(c3)CCO4)CC2)C1 [Compound 36, 3-[4-(2,3-dihydrofuro[2,3-b]pyridin-5-yl)piperidin-1-yl]sulfonyl-N-(3,5-dimethyl-1,2-oxazol-4-yl)azetidine-1-carboxamide] | 1000 to 10000 nM
5 | O=C(OC1CCC1)N1CC(S(=O)(=O)N2CCC(c3c[nH]c4ncccc34)CC2)C1 [Compound 198, cyclobutyl 3-[4-(1H-pyrrolo[2,3-b]pyridin-3-yl)piperidin-1-yl]sulfonylaze-tidine-1-carboxylate] | 10 to 100 nM
6 | CC(C)CC(=O)N1CC(S(=O)(=O)N2CCC(c3c[nH]c4ncccc34)CC2)C1 [Compound 195, 3-methyl-1-[3-[4-(1H-pyrrolo[2,3-b]pyridin-3-yl)piperidin-1-yl]sulfonylaze-tidin-1-yl]butan-1-one] | 10 to 100 nM
7 | Cc1cc(Cl)ccc1C1CCN(S(=O)(=O)C2CN(C(=O)CN(C(C)C)C(C)C)C2)CC1 [Compound 317, 1-[3-[4-(4-chloro-2-methylphenyl)piperidin-1-yl]sulfonylaze-tidin-l-yl]-2-[di(propan-2-yl)amino] ethanone] | 100 to 1000 nM
8 | C[C@@H](NC(=O)N1CC(S(=O)(=O)N2CCC(c3c[nH]c4ncccc34)CC2)C1)C(F)(F)F [Compound 332, 3-[4-(1H-pyrrolo [2,3-b]pyridin-3-yl)piperidin-1-yl]sulfonyl-N-[(2R)-1,1,1-trifluoropropan-2-yl]azetidine-1-carboxamide] | 10 to 100 nM
9 | O=C(c1cccs1)N1CC(S(=O)(=O)N2CCC(c3c[nH]c4ncccc34)CC2)C1 [Compound 193, [3-[4-(1H-pyrrolo[2,3-b]pyridin-3-yl)piperidin-1-yl]sulfonylaze-tidin-1-yl]-thiophen-2-ylmethanone] | 10 to 100 nM
10 | CC(C)(C)OC(=O)N1CCC(S(=O)(=O)N2CCC(c3ccncc3)CC2)C1 (racemic) [Compound 269, tert-butyl 3-(4-pyridin-4-ylpiperidin-1-yl)sulfonylpyrrolidine-1-carboxylate] | 100 to 1000 nM
11 | CC(C)CC(=O)N1CC(S(=O)(=O)N2CCC(c3coc4cccnc34)CC2)C1 [Compound 408, 1-[3-(4-furo[3,2-b]pyridin-3-ylpiperidin-1-yl)sulfonylazetidin-1-yl]-3-methylbutan-1-one] | 100 to 1000 nM
12 | Cc1ccc(S(=O)(=O)n2ccc3c(C4CCN(S(=O)(=O)C5CCN(C(=O)OC(C)(C)C)CC5)CC4)ccnc32)cc1 [Compound 8, tert-butyl 4-[4-[1-(4-methylphenyl)-sulfonylpyrrolo[2,3-b]pyridin-4-yl]piperidin-1-yl]sulfonylpiper-idine-1-carboxylate] | 10 to 100 nM
13 | CC(C)(C)OC(=O)N1CC(S(=O)(=O)N2CCC(c3cnc4n3CCC4)CC2)C1 [Compound 5, tert-butyl 3-[4-(6,7-dihydro-5H-pyrrolo[1,2-a]imidazol-3-yl)piperidin-1-yl]sulfonylaze-tidine-1-carboxylate] | 1000 to 10000 nM
14 | CC(C)(C)NC(=O)N1CCC(S(=O)(=O)N2CCC(c3ccncc3)CC2)CC1 [Compound 111, N-tert-butyl-4-(4-pyridin-4-ylpiperidin-1-yl)sulfonylpiper-idine-1-carboxamide] | 100 to 1000 nM
15 | Cc1noc(C)c1CCN1CC(S(=O)(=O)N2CCC(c3coc4cccnc34)CC2)C1 [Compound 134, 3-[1-[1-[2-(3,5-dimethyl-1,2-oxazol-4-yl)ethyl]azetidin-3-yl]sulfonylpiper-idin-4-yl]furo [3,2-b]pyridine] | 100 to 1000 nM

The next lines start with the values.

Row | IC50 | SMILES
16 | 1000 to 10000 nM | CC(C)(C)OC(=O)N1CCC(S(=O)(=O)N2CCC(c3ncnc4[nH]ccc34)CC2)CC1 [Compound 10, tert-butyl 4-[4-(7H-pyrrolo[2,3-d]pyrimidin-4-yl)piperidin-1-yl]sulfonylpiper-idine-1-carboxylate]
17 | 1000 to 10000 nM | CC(C)(C)OC(=O)N1CCn2c(C3CCN(S(=O)(=O)C4CN(C(=O)OC(C)(C)C)C4)CC3)cnc2C1 [Compound 4, tert-butyl 3-[1-[1-[(2-methylpropan-2-yl)oxycarbonyl]azetidin-3-yl]sulfonylpiper-idin-4-yl]-6,8-dihydro-5H-imidazo[1,2-a]pyrazine-7-carboxylate]
18 | 10 to 100 nM | CC1(C)COCC(C)(C)N1C(=O)N1CC(S(=O)(=O)N2CCC(c3c[nH]c4ncccc34)CC2)C1 [Compound 169, [3-[4-(1H-pyrrolo[2,3-b]pyridin-3-yl)piperidin-1 yl]sulfonylaze-tidin-1-yl]-(3,3,5,5-tetramethylmorpholin-4-yl)methanone]
19 | 10 to 100 nM | CC(C)(C)NC(=O)[C@H]1C[C@@H](S(=O)(=O)N2CCC(c3coc4cccnc34)CC2)C1 [Compound 362, cis-N-tert-butyl-3-(4-furo[3,2-b]pyridin-3-ylpiperidin-1-yl) sulfonylcyclobutane-1-carboxamide]
20 | 10 to 100 nM | CC(C)(C)OC(=O)N1CCC(OC(=O)N2CC(S(=O)(=O)N3CCC(c4c[nH]c5ncccc45)CC3)C2)CC1 [Compound 211, tert-butyl 4-[3-[4-(1H-pyrrolo[2,3-b]pyridin-3-yl)piperidin-1-yl]sulfonylaze-tidine-1-carbonyl] oxypiperidine-1-carboxylate]
21 | 10 to 100 nM | O=C(Nc1cccc(F)c1)N1CC(S(=O)(=O)N2CCC(c3coc4cccnc34)CC2)C1 [Compound 383, N-(3-fluorophenyl)-3-(4-furo[3,2-b]pyridin-3-ylpiperidin-1-yl)sulfonylaze-tidine-1-carboxamide]
22 | 1000 to 10000 nM | O=S(=O)(C1CN(Cc2ccccc2OC(F)F)C1)N1CCC(c2ccccc2)CC1 [Compound 353, 1-[1-[[2-(difluoromethoxy)phenyl]methyl]azetidin-3-yl]sulfonyl-4-phenylpiperidine]
23 | 100 to 1000 nM | O=C(N1CCCCC1)N1CC(S(=O)(=O)N2CCC(c3c[nH]c4ncccc34)CC2)C1 [Compound 86, piperidin-l-yl-[3-[4-(1H-pyrrolo[2,3-b]pyridin-3-yl)piperidin-1-yl]sulfonylaze-tidin-1-yl]methanone]
24 | 1000 to 10000 nM | Cc1ccc(F)cc1NC(=O)N1CC(S(=O)(=O)N2CCC(c3ccncc3)CC2)C1 [Compound 286, N-(5-fluoro-2-methylphenyl)-3-(4-pyridin-4-ylpiperidin-1-yl)sulfonylaze-tidine-1-carboxamide]
25 | 10 to 100 nM | O=C(O[C@H]1CCOC1)N1CC(S(=O)(=O)N2CCC(c3c[nH]c4ncccc34)CC2)C1 [Compound 197, [(3S)-oxolan-3-yl]3-[4-(1H-pyrrolo[2,3-b]pyridin-3-yl)piperidin-1-yl]sulfonylaze-tidine-1-carboxylate]
26 | 100 to 1000 nM | CC[C@@H](C)OC(=O)N1CC(S(=O)(=O)N2CCC(c3ccncc3)CC2)C1 [Compound 263, [(2R)-butan-2-yl]3-(4-pyridin-4-ylpiperidin-1-yl)sulfonylaze-tidine-1-carboxylate]
27 | 100 to 1000 nM | COC(=O)[C@H]1C[C@@H](S(=O)(=O)N2CCC(c3c[nH]c4ncccc34)CC2)C1 [Compound 273]
28 | 100 to 1000 nM | CN1CCC[C@H]1C(=O)N1CC(S(=O)(=O)N2CCC(c3coc4cccnc34)CC2)C1 [Compound 407, [3-(4-furo[3,2-b]pyridin-3-ylpiperidin-1-yl)sulfonylazetidin-1-yl]-[(2S)-methylpyrroli-din-2-yl]methanone]
29 | 10 to 100 nM | O=C(OC1CCOCC1)N1CC(S(=O)(=O)N2CCC(c3c[nH]c4ncccc34)CC2)C1 [Compound 218, oxan-4-yl 3-[4-(1H-pyrrolo[2,3-b]pyridin-3-yl)piperidin-1-yl]sulfonylaze-tidine-1-carboxylate]
30 | 100 to 1000 nM | O=C(C1CC1)N1CC(S(=O)(=O)N2CCC(c3c[nH]c4ncccc34)CC2)C1 [Compound 191, cyclopropyl-[3-[4-(1H-pyrrolo[2,3-b]pyridin-3-yl)piperidin-1-yl]sulfonylaze-tidin-1-yl]methanone]
31 | 100 to 1000 nM | O=S(=O)(C1CN(c2nc(C(F)(F)F)ccc2C(F)(F)F)C1)N1CCC(c2c[nH]c3ncccc23)CC1 [Compound 184, 3-[1-[1-[3,6-bis(trifluoromethyl)pyridin-2-yl]azetidin-3-yl]sulfonylpiper-idin-4-yl]-1H-pyrrolo[2,3-b]pyridine]
32 | 100 to 1000 nM | CC(C)(C)OC(=O)N1CC(S(=O)(=O)N2CC=C(c3cnc4occc4c3)CC2)C1 [Compound 234, tert-butyl 3-[(4-furo[2,3-b]pyridin-5-yl-3,6-dihydro-2H-pyridin-1-yl)sulfonyl]aze tidine-1-carboxylate]
33 | 10 to 100 nM | Cc1cc(F)ccc1NC(=O)N1CC(S(=O)(=O)N2CCC(c3c[nH]c4ncccc34)CC2)C1 [Compound 394, N-(4-fluoro-2-methylphenyl)-3-[4-(1H-pyrrolo[2,3-b]pyridin-3-yl)piperidin-1-yl]sulfonylazet idine-1-carboxamide]
34 | 10 to 100 nM | Cc1noc(C)c1CC(=O)N1CC(S(=O)(=O)N2CCC(c3ccc(F)cc3)CC2)C1 [Compound 342, 2-(3,5-dimethyl-1,2-oxazol-4-yl)-1-[3-[4-(4-fluorophenyl)piperidin-1-yl]sulfonylazetidin-1-yl]ethanone]
35 | 10 to 100 nM | O=C(OC[C@@H]1CCCO1)N1CC(S(=O)(=O)N2CCC(c3c[nH]c4ncccc34)CC2)C1 [Compound 163, [(2S)-oxolan-2-yl]methyl 3-[4-(1H-pyrrolo[2,3-b]pyridin-3-yl)piperidin-1-yl]sulfonylaze-tidine-1-carboxylate]
